In patent publication US12509454B2, “Thiadiazolyl derivatives” (IDEAYA Biosciences, Inc., priority 2019, dated 2025) one finds IC50 data, which are given here for 9 molecules.

For this test, the target named is Pol theta (1-899) (Homo sapiens (Human), UniProt O75417). Nature of the test: Pol theta ATPase activity, NADH oxidation-coupled enzymatic assay. It counts as biochemical. As to conditions: Pol theta (1-899) 10 nM, ATP, dT50 ssDNA, absorbance 340 nm, 10-point dilution series; read-out: ATPase NADH coupling:Standard Screening:hPolQ IC50. In short, it runs like this: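 Pol theta (1-899), 10 nM, preincubated 15 min at RT with 10-point compound series in Tris pH 7.80/KCl/MgCl2 buffer, then given 100 μM ATP plus 300 nM dT50 ssDNA with PK/LDH-coupled NADH oxidation. A340 followed for 30 min; rate slopes fitted with a four-parameter model for IC50.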
Sequence of Pol theta (1-899) (O75417 1-899): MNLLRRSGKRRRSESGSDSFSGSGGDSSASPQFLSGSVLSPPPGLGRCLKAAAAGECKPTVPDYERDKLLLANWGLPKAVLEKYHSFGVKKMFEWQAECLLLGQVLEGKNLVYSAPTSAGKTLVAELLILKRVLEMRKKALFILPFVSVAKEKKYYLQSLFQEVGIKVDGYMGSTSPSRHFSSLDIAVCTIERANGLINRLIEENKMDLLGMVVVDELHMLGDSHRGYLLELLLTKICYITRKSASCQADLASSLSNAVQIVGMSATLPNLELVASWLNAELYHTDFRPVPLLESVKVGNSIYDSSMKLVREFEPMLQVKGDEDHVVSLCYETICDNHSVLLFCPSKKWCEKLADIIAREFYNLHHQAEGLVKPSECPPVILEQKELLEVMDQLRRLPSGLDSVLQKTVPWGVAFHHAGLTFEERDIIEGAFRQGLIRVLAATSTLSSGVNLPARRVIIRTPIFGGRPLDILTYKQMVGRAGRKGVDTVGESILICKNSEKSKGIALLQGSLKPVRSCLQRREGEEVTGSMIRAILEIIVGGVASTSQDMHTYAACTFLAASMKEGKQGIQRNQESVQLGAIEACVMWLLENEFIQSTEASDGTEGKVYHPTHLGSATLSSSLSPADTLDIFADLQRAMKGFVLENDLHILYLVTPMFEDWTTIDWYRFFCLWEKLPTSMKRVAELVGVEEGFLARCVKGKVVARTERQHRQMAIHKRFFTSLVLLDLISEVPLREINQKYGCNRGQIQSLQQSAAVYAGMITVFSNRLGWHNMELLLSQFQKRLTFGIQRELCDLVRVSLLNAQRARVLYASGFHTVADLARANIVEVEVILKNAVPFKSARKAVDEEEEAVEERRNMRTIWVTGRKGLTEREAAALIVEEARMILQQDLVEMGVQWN
On to `C[C@H]1COCCN1c1ncccc1C(=O)Nc1nnc(OCc2ccc(Cl)cc2)s1` [Example 10, (S)—N-(5-((4-chlorobenzyl)oxy)-1,3,4-thiadiazol-2-yl)-2-(3-methyl-morpholino)nicotinamide], for which the IC50 was 500 to 1000 nM. For the molecule `N#Cc1cc(-c2c(F)cccc2OC(F)F)c(C(=O)Nc2nnc(OCc3ccc(Cl)cc3)s2)cn1` [Example 192, N-(5-((4-chlorobenzyl)oxy)-1,3,4-thiadiazol-2-yl)-6-cyano-4-(2-(difluoromethoxy)-6-fluorophenyl)nicotinamide], the IC50 is not above 200 nM. As to `O=C(Nc1nnc(OCc2ccc(Cl)cc2)s1)c1ccncc1-c1c(F)cccc1OC(F)F` [Example 109, N-(5-((4-chlorobenzyl)oxy)-1,3,4-thiadiazol-2-yl)-3-(2-(difluoromethoxy)-6-fluorophenyl)isonicotinamide], the IC50 was not above 200 nM. As to `O=C(Nc1nnc(OCc2ccc(Cl)cn2)s1)c1cccnc1N1CCOCC1` [Example 3], the IC50 was in the range of 1000 to 10000 nM. Consider `O=C(Nc1nnc(OCc2cnc(Cl)cn2)s1)c1cccnc1N1CCOCC1` [Example 19, N-[5-[(5-chloropyrazin-2-yl)methoxy]-1,3,4-thiadiazol-2-yl]-2-(morpholin-4-yl)pyridine-3-carboxamide], for which the IC50 lay in the range of 1000 to 10000 nM. On to `Cn1cc(-c2ccncc2C(=O)Nc2nnc(OCc3ccc(Cl)cc3)s2)ccc1=O` [Example 122, N-(5-((4-chlorobenzyl)oxy)-1,3,4-thiadiazol-2-yl)-1-methyl-6-oxo-1,6-dihydro-[3,4′-bipyridine]-3′-carboxamide], for which the IC50 is not above 200 nM. The figure for `O=C(Nc1nnc(OCc2ccc(Cl)cc2)s1)c1ccncc1-c1ccccc1OC1CC(O)C1` (stereo not drawn) [Example 165, N-(5-((4-chlorobenzyl)oxy)-1,3,4-thiadiazol-2-yl)-3-(2-(3-hydroxycyclobutoxy)phenyl)isonicotinamide] is not above 200 nM; for `COc1ccccc1-c1ccncc1C(=O)Nc1nnc(OCC2CC2)s1` [Example 90, N-(5-(cyclopropylmethoxy)-1,3,4-thiadiazol-2-yl)-4-(2-methoxyphenyl)nicotinamide] it is 500 to 1000 nM. As to `O=C(Nc1nnc(OCc2ccc(Cl)cc2)s1)c1cccnc1N1CCN2C(=O)CC[C@@H]2C1` (single isomer, unassigned) [Example 70, (R)—N-(5-((4-chlorobenzyl)oxy)-1,3,4-thiadiazol-2-yl)-2-(6-oxohexahydropyrrolo-[1,2-a]pyrazin-2(1H)-yl)nicotinamide or (S)—N-(5-((4-chlorobenzyl)oxy)-1,3,4-thiadiazol-2-yl)-2-(6-oxohexahydropyrrolo[1,2-a]pyrazin-2(1H)-yl)nicotinamide], the IC50 lay in the range of 500 to 1000 nM.
